Measured values from patent US10206922B2, “Substituted pyrimidines for treatment of chronic cough, neuronal hypersensitivity underlying chronic cough, neuronal hypersensitivity underlying sub-acute cough and neuronal hypersensitivity underlying acute cough” (Afferent Pharmaceuticals. Inc., priority 2013, dated 2019).

Tested on: idiopathic/treatment-resistant chronic cough patients
Assay: double-blind randomized placebo-controlled crossover trial in idiopathic/treatment-resistant chronic cough
Type: in vivo, human
Settings: 2 weeks
Procedure: Thus, the inventors explored the role of P2X3 receptors in the sensitization of vagal pathways mediating the cough reflex leading to chronic cough (CC). A study was performed to investigate the efficacy of oral administration of Compound 16 in reducing daytime cough in idiopathic/treatment-resistant chronic cough.
In this study, a double-blind randomized placebo-controlled crossover trial, 24 subjects (19 women, mean age 55 yrs) were randomized into a double blind, placebo-controlled, 2-period, crossover study, of Compound 16, 600 mg bd. Cough was assessed using an ambulatory sound monitoring system at baseline and after 2 weeks of treatment; primary endpoint, daytime objective cough frequency (coughs/hr) (VitaloJAK™); secondary endpoints, cough severity and urge to cough (UTC) visual analogue scales (VAS), global ratings of change and cough quality of life questionnaire (CQLQ).

## COc1cc(C(C)C)c(Oc2cnc(N)nc2N)cc1S(N)(=O)=O [Compound 16, 5-(2,4-Diamino-pyrimidin-5-yloxy)-4-isopropyl-2-methoxy-benzenesulfonamide]
600 mg bd oral, (−2 to −17), p=0.018
  CQLQ (cough quality of life questionnaire), mean difference vs. placebo: −9
600 mg bd oral, (−2 to −41), p=0.035
  UTC (urge to cough) VAS, mean difference vs. placebo: −21 mm
600 mg bd oral, (−10 to −42), p=0.003
  cough severity VAS, mean difference vs. placebo: −26 mm
600 mg bd oral, compared to 2/22 treated with placebo
  patients who rated an improved cough (global rating of change): 13/24
Compound 16 600 mg bd oral, 24 subjects, 95% CI −50 to −88, p<0.001
  daytime coughs/hr (daytime objective cough frequency), mean difference vs. placebo: −75%
